Results as given in patent US10240133B2, “ERK-derived peptides and uses thereof” (Yeda Research and Development Co. Ltd., priority 2013, dated 2019).

Tests used:
ERK1/2 = test: Nuclear translocation of ERK (fluorescence microscopy, subcellular fractionation); format: cell-based; settings: HeLa cells
Experimental: FIGS. 1A-1F illustrate that EPE peptide prevents nuclear translocation of ERK1. A2352 (A), MDA-MB-231 (B) HeLa (C), T47D (D), NHEM-AD (E) and HB2 (F) cells were serum-starved, pretreated with the EPE peptides, Scr peptide (10 μM, 2 h) DMSO and then either stimulated with TPA (250 nM, 15 min) or left untreated (NS) as control. The cells were stained with αgERK1/2 Ab and DAPI. Scale-bar—15 μm.
FIGS. 12A-12D illustrate that the EPE peptide inhibits the nuclear translocation of ERK1/2. Serum-starved (0.1% FCS, 16 hr) A2352 (FIG. 12A), HeLa (FIG. 12B), MDA-MB-231 (FIG. 12C), or LOXMVI (FIG. 12D) cells were pretreated with EPE or scrambled peptides (10 μM, 2 hr). Cells were then stimulated with EGF (50 ng/ml) or left untreated, and then harvested. Subcellular fractionation of cytoplasm and nucleus was performed as below, and fractions were subjected to Western blot analysis with the indicated Abs. Subcellular Fractionation was performed as follows: Harvested cells were resuspended in 200 μl of buffer H containing 0.1% Nonidet P-40. The lysates were mixed vigorously and centrifuged immediately to yield supernatants containing the cytosolic fraction. Nuclear proteins were extracted by resuspending the nuclear pellets in 200 μl of extraction buffer, waiting on ice for 5 min, brief sonication (2×5 sec, 40 W, 4° C.), vigorous mixing, and centrifugation. Both cytosolic and nuclear fractions were subjected to Western blotting.
A2185 (A) and A2352 (B) B-Raf melanoma cells were serum-starved (16 hours, 0.1% FBS), and then either pretreated with the EPE peptides (10 μM, 2 hours) or left untreated. Then, the cells were stimulated with TPA ([…], 20 min), or left untreated (NS) DMSO as control. The cells were stained with either anti ERK1 (Santa Cruz, C16) or anti ERK2 (C14, Santa Cruz) Abs and DAPI. (C) Quantification of the number of cell in which ERK1 or ERK2 were mostly (>80%) localized in the nucleus was performed by counting 5 fields containing 100 cells per field.
FIGS. 15A-15B illustrate that the EPE peptide prevents nuclear accumulation/translocation of ERK1/2 in PLX4032-resistant melanoma cells. A2352 that were made resistant to PLX4032 (as described under Material and Methods) and A4132 PLX4032 resistant melanoma cell from patient were serum-starved (16 hours, 0.1%), pretreated with the EPE or scrambled peptide (10 μM, 2 hours) and then either stimulated with TPA (100 nM, 20 min) or left untreated (NT) as control. The cells were stained with αgERK1/2 Ab and DAPI.
Cells were fixed in 3% paraformaldehyde in PBS (20 min, 23° C.), and then permeabilized and blocked with 0.2% Triton X-100 in PBS-BSA (2%) for 20 min at 23° C. The fixed cells were sequentially incubated with appropriated Abs, (diluted in 10 μg/ml BSA/PBS) for 1 h, followed by either Cy-2 or rhodamine-conjugated secondary Abs and DAPI (diluted in BSA/PBS, 1:200) for 1 h. To follow the subcellular localization of the biotin-conjugated peptides, cells were incubated with Avidin-FITC (diluted in BSA/PBS 1:400) and DAPI. Slides were analyzed and photographed by a fluorescent microscope (Nikon, Japan, 600× magnification).

B-Raf melanoma cells = test: Morphology assay (light microscopy); format: cell-based; settings: 10 μM
Experimental: (§1) FIGS. 5A-5D illustrate that the EPE peptide leads to apoptosis of B-Raf mutant cancer cells. (A) The EPE peptide affects the morphology of treated cells. The indicated cells were treated with either the EPE or Scr peptides, DMSO, or taxol for 72 h, and photographed by a light microscope. (B) The EPE peptide induces apoptosis in melanoma cells detected by TUNEL. The indicated cell lines were treated as in A for 24 h. Apoptosis was detected by TUNEL staining. Images were obtained by florescence microscope. (C) Quantification of B. The bar-graph represents percent of apoptotic cells calculated in 10 different fields. (D) The EPE peptide induces apoptosis of melanoma cells detected by PARP cleavage. The indicated cell lines were treated as in (A) for 24 h. Cell extracts were subjected to Western blotting with αPARP Ab.
Cells were seeded on glass cover slips in a 12-wells plate at 25% confluence with medium containing 1% of FCS. Peptides (EPE or Scr), DMSO, or U0126 in a final concentration of 10 μM, were added after 4 h (considered as time “0”). TUNEL staining was performed at 24 h after the treatment according to manufacturer instruction (Roche Applied Science, Nutley, N.J., USA). Briefly, the medium was removed and cells were fixed with 3% of paraformaldehyde (1.5 h, 23° C.). Cells were rinsed twice with PBS and permeabilized with 0.1% Triton X-100 and 0.1% sodium citrate for 2 min on ice. Cells were rinsed twice with PBS and 28 μl of TUNEL reaction mixture (25 μl of TUNEL label, 2.5 μl of TUNEL enzyme and 0.1 mg/ml of DAPI) was added directly on top of the slide, cells were incubated for 16 h in humid box at 37° C. Cover slips were rinsed three times with PBS and mounted on microscope slides. The slides were dried and then subjected to image acquisition by a florescence microscope. For morphology assay, the cells were seeded at approximately 25% confluence in 6 cm plates with medium containing 1% FCS. Peptides (EPE and Scr) or DMSO or U0126 in a final concentration of 10 μM, were added after 4 h (considered to be time 0), 24 h and 48 h. […]

[1] = system: other cell lines examined; test: Apoptosis (TUNEL, PARP-1 cleavage); format: cell-based
Experimental: as §1
Cells were seeded on glass cover slips in a 12-wells plate at 25% confluence with medium containing 1% of FCS. Peptides (EPE or Scr), DMSO, or U0126 in a final concentration of 10 μM, were added after 4 h (considered as time “0”). TUNEL staining was performed at 24 h after the treatment according to manufacturer instruction (Roche Applied Science, Nutley, N.J., USA). Briefly, the medium was removed and cells were fixed with 3% of paraformaldehyde (1.5 h, 23° C.). Cells were rinsed twice with PBS and permeabilized with 0.1% Triton X-100 and 0.1% sodium citrate for 2 min on ice. Cells were rinsed twice with PBS and 28 μl of TUNEL reaction mixture (25 μl of TUNEL label, 2.5 μl of TUNEL enzyme and 0.1 mg/ml of DAPI) was added directly on top of the slide, cells were incubated for 16 h in humid box at 37° C. Cover slips were rinsed three times with PBS and mounted on microscope slides. The slides were dried and then subjected to image acquisition by a florescence microscope. For morphology assay, the cells were seeded at approximately 25% confluence in 6 cm plates with medium containing 1% FCS. Peptides (EPE and Scr) or DMSO or U0126 in a final concentration of 10 μM, were added after 4 h (considered to be time 0), 24 h and 48 h. Images were obtained by a light microscope (Olympus BX51) after 72 h.

[2] = system: PLX-4032 and U0126 resistant A2352 melanoma cells; test: Proliferation of inhibitor-resistant melanoma cells; format: cell-based
Experimental: (A) A2352 melanoma cells resistant to either PLX4032 (B-Raf) or U0126 (MEK) inhibitors were treated with DMSO, EPE or Scr peptide (10 μM), U0126 (10 μM), PLX4032 (1 μM), Wortmannin (0.5 μM) or Taxol (25 μg/ml). Presented as percent of viable cells at 72 h/initial cell number. […] Methylene blue assay was performed to quantify viable cells. Experiments were done twice in triplicate. Data presented as fold change.
A2352 cells were supplemented with either PLX4032 (B-Raf inhibitor, 1 μM), or U0126 (MEK inhibitor, 10 μM) for 45 days. […]

A2352 xenografts = test: Tumor disappearance and recurrence in A2352 xenografts, EPE peptide compared with PLX4032; format: in vivo, SCID mice
Experimental: FIGS. 6A-6B illustrate that the EPE peptide prevents the growth of human tumor xenografts. CD-1 nude mice were inoculated with MDA-MB-231, LOXIMVI and HCT-116 cells, and SKID mice were inoculated with A2352 cells. Upon tumors establishment, the mice were treated intravenously with the DMSO as well as EPE or Scr peptides in the indicated doses, 3 times a week. The results are averages of 5 mice in each experimental group. The X, Y, Z dimensions of the tumors were measured with a caliper, and the volume was calculated accordingly. The significance of all experiments was at least P<0.001. (B) The EPE peptide prevents tumor recurrence on melanoma xenograft. SCID mice were inoculated with A2352 cells. Upon establishment of tumors mice were treated intravenously with 15 mg/kg EPE peptide (n=7) or intraperitonealy with 15 mg/kg PLX4032 (n=5), at the indicated dose 3 times a week. Tumor size was recorded at the same time using a caliper. Following 3 weeks of treatment, mice were kept for further evaluation monitoring for any tumor recurrence of the effective treated melanoma xenografts. Experiment was concluded 110 days post inoculation (11 weeks after the last treatment) and the overall state of the animals was evaluated. sac=sacrificed, recur=recurrence, met=metastasis.
Tumor dimensions were measured with a digital sliding caliper.

[3] = system: non-transformed melanocytes (NHEM-Ad); test: Cell viability, EPE peptide compared with PLX4032; format: cell-based; settings: EPE 10 μM, PLX4032 1 μM, 1% FCS
Experimental: (§2) FIGS. 3A-3B illustrate that EPE peptide prevents proliferation of cancer but not normal cells. (A) Effect of the EPE peptide on the proliferation of various cell lines. Sixteen cancer and four “normal” immortalized cell lines were treated with either EPE or scrambled peptides as described above. Viable cells were assayed by Methylene Blue at 48 or 72 hours after cell seeding. The data from at least three independent experiments is presented as percent of the amount of viable cells/initial cell number, where initial cell number was considered as 100. (B) Comparison of the effects of the EPE-peptide and Raf inhibitor PLX4032 on cell viability. NHEM-Ad, LOXIMVI, A2352, Hela MDA-MB-231, and DU-145 cells were treated with EPE peptide, scrambled peptide, (10 μM), PLX4032 (1 μM), DMSO control, or no treatment at 1% FCS. The number of cells was detected as above. The graphs present the kinetic of cell growth at the indicated times. All experiments were repeated 3 times in triplicates.
(§3) All cells, except of MCF-10A, were seeded into 12-well cell plates in 1% FBS medium. MCF-10A cells were seeded in their complete medium diluted 5 fold. DMSO, Scr peptide, EPE peptide, or U0126 (final concentration of 10 μM each) were added to the appropriated wells four hours later. Every day medium was changed to fresh one containing the same agents. The number of viable cells was measured by Methylene Blue assay at 72 h after cell seeding. Shortly, cells were fixed with 4% Formaldehyde for 2 h at 23° C., washed once with 0.1M Borate Buffer pH 8.5 and stained with of 1% Methylene Blue in 0.1M Borate Buffer for 10 min. Color was extracted by adding 0.1 M HCl for 3 h at 23° C., and examined at 595 nm. For time course experiments, viable cells were measured at 0, 24, 48, 72 and 96 h after cell seeding. For dose response experiments we treaded the cells with 0.1, 1, 3, 10, or 30 μM of peptides for 72 h, as described above.

[4] = system: N-Ras transformed melanoma cells LOXIMVI; test: Cell viability, EPE peptide compared with PLX4032; format: cell-based; settings: EPE 10 μM, PLX4032 1 μM, 1% FCS
Experimental: as §2, §3

GQLNHILGILGSPSQED (Synthetic peptide (SPS)) [SPS peptide, NTS-derived peptide of ERK]
TPA-induced nuclear translocation of ERK (ERK1/2): prevented TPA-induced nuclear translocation of ERK

N#CC(=C(/N)Sc1ccccc1N)/C(C#N)=C(\N)Sc1ccccc1N [U0126, reference compound]
TPA-induced nuclear translocation of ERK (ERK1/2): inhibition
cell morphology (B-Raf melanoma cells): A similar appearance, albeit a weaker one

CC(=O)O[C@H]1C(=O)[C@@]2(C)[C@H]([C@H](OC(=O)c3ccccc3)[C@]3(O)C[C@H](OC(=O)[C@H](O)[C@@H](NC(=O)c4ccccc4)c4ccccc4)C(C)=C1C3(C)C)[C@]1(OC(C)=O)CO[C@@H]1C[C@@H]2O [Taxol, reference compound]
apoptosis / cell death [1]: clear ability to undergo a Taxol or H2O2-induced cell death
effect in resistant compared with non-resistant cells [2]: as effective in non-resistant, as resistant cells

OO [H2O2]
apoptosis / cell death [1]: clear ability to undergo a Taxol or H2O2-induced cell death

CCCS(=O)(=O)Nc1ccc(F)c(C(=O)c2c[nH]c3ncc(-c4ccc(Cl)cc4)cc23)c1F [PLX4032, reference compound]
time to complete disappearance of tumors (A2352 xenografts; 15 mg/kg, 3 times a week): 13 to 23 days
tumor disappearance (A2352 xenografts; 15 mg/kg, 3 times a week, 3 weeks, EPE i.v. (n=7), PLX4032 i.p. (n=5), initial ~80 mm3 tumors): complete disappearance in three mice
time to development of resistance (one mouse) (A2352 xenografts; during treatment): ≤ 13 days
mice with tumor recurrence (A2352 xenografts; follow up for up to 11 weeks after last treatment): 3 out of 5
viability [3]: strong inhibitory effect
viability [4]: not sensitive to PLX4032
